The values below come from article PMC4551797 (PLoS ONE, 2015).

Like-named read-outs stand apart in the source and are kept apart here.

One data set deals with DIO C57BL/6 mice. Nature of the data set: Oral glucose tolerance test in diet-induced obese mice, acute or after 2-week dosing. As to conditions: 2 g/kg glucose. The format is in vivo, mouse. On the procedure:
For measurement of glucose only, overnight-fasted C57BL/6 mice in a normal light cycle were orally dosed with vehicle or compound, followed by an oral bolus of 3 g/kg glucose at 15 minutes post compound. At 0, 20, 40, 60, and 120 minutes post glucose dose, blood glucose was assessed via glucometers. Resulting raw data was used to generate AUCs. For measurement of hormones and glucose, overnight-fasted C57BL/6 mice acclimated for two weeks to a reverse light cycle were orally dosed with vehicle or compound, followed by an oral bolus of 3 g/kg glucose at 15 minutes post compound. At 0, 2, 5, 10, 20, 40, and 60 minutes post glucose dose, blood glucose was assessed via glucometers, followed immediately by collection of plasma for active GLP-1 (Mesoscale Discovery), insulin (Mesoscale Discovery), and total PYY. […] At 0, 15, 30, 60, and 120 minutes post glucose dose, blood glucose was assessed via glucometers. […]
While compound 18 led to significant glucose lowering in an OGTT studies when dosed acutely, it remained unclear if the mechanism of TGR5-stimulated GLP-1 secretion desensitizes over time. […] For the chronic study, DIO mice were orally dosed with vehicle or 60 mg/kg compound 18 once a day for two weeks; body weights and food intake were measured during the treatment period. […]

The next data set deals with GPR40 (Homo sapiens, UniProt O14842). Put plainly: Selectivity: enteroendocrine GPCR GPR40.
Chain of GPR40 (O14842 whole entry, species assumed): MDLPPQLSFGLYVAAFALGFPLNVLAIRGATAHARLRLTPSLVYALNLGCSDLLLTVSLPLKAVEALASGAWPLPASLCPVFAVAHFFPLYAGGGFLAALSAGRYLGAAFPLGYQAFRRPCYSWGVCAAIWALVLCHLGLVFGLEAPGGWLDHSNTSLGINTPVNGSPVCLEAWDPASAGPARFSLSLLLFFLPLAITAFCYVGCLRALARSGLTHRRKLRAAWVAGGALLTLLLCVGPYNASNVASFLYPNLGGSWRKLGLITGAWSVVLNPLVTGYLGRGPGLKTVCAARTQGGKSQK
The test system of a further data set is STC-1 cells. Put plainly: GLP-1 secretion in STC-1 enteroendocrine cells. The format is cell-based. The settings on record: Mus musculus. On the procedure: (§1) HEK-293 cells were obtained from ATCC and a clonal HEK-293 line overexpressing mouse TGR5 was prepared. Both were maintained in Dulbecco’s modified Eagle’s medium (DMEM) containing 10% fetal bovine serum (FBS) and penicillin /streptomycin. Mouse STC-1 cells were obtained from ATCC under agreement with the Cold Spring Harbor Laboratories and maintained in DMEM containing 10% FBS and penicillin /streptomycin. NCI-H716 cells were obtained from ATCC and were maintained in RPMI-1640 with 10% FBS. NCI-H716 cells were cultured in 96 well plate coated with Matrigel (BD). After 72 hours, cAMP production stimulated with TGR5 agonists was measured using HTRF cAMP assay kit (CISBIO). The level of cAMP in suspensions of STC-1 cells stimulated with increasing concentrations of TGR5 agonists was also determined. […] The production of GLP-1 was determined using a GLP-1 Assay (7–36) amide kit (Mesoscale Discovery) following the manufacturer’s instructions. […]
(§2) Compound 18 is a novel small molecule agonist of TGR5 developed by Eli Lilly and Company (MW = 508.62, Fig 2A). […] In order to determine potency of compound 18 for the mouse and human TGR5 receptor in cells with endogenous levels of receptor, we measured compound 18-stimulated cAMP production and GLP-1 secretion in both mouse (STC-1) and human (NCI-H716) enteroendocrine cell lines, that we have shown to express TGR5 natively (Fig 1). […]

Data set [1] can be described thus: Plasma compound levels after oral dosing (LC-MS/MS). The settings on record: C57BL/6, mouse.
Another data set deals with T1, human TGR5 receptor (Homo sapiens, UniProt Q8TDU6).
T1 construct: in cells with endogenous levels of receptor; host or cells: NCI-H716 (human enteroendocrine)
T1 sequence (Q8TDU6 1-330): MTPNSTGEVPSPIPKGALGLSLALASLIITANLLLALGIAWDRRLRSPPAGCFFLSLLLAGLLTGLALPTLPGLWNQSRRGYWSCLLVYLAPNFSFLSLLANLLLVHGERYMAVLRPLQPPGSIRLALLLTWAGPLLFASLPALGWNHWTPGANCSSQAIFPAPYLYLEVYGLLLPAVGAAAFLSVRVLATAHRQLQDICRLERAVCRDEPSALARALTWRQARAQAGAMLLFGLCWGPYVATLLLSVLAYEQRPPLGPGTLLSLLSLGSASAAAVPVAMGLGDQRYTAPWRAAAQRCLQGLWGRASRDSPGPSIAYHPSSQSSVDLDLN
Nature of the data set: cAMP production in NCI-H716 enteroendocrine cells (endogenous TGR5). In kind it is cell-based. How it is done: as §1, §2

Regarding `CC(=O)N1CCC(C(C)N(C(=O)COc2cccc3sc4nc(C)cn4c23)c2ccc(F)cc2)CC1` (stereo not drawn) [compound 18], the “reduction in the glucose excursion (OGTT)” value in the data set with DIO C57BL/6 mice (acute, single 60 mg/kg oral dose) came out at 33 ± 5%; with DIO C57BL/6 mice (chronic, 60 mg/kg oral once a day for two weeks), 27 ± 6%. In addition, the EC50 was above 125000 nM on GPR40; 307 nM with STC-1 cells (read-out: EC50, GLP-1 secretion); 307 nM in the data set with STC-1 cells (unit inferred, x-axis in nM, read-out: EC50 STC-1 (Fig 2D inset, GLP-1 secretion)); 3100 nM at human TGR5 receptor. Besides, the exposure AUC(0-t) in data set [1] (3 mg/kg) worked out at 0.049 µM·h; in data set [1] (10 mg/kg), 0.507 µM·h; in data set [1] (30 mg/kg), 1.52 µM·h; in data set [1] (100 mg/kg), 14.3 µM·h. In addition, the Cmax in data set [1] (3 mg/kg) stood at 59 nM; in data set [1] (10 mg/kg) it was 348 nM; in data set [1] (30 mg/kg), 2510 nM; in data set [1] (100 mg/kg) it was 14800 nM. Besides, the Tmax in data set [1] (100 mg/kg) is 15 min.

Broadly, the EC50 is the midpoint of the concentration-response curve. The AUC(0-t) is exposure summed from dosing to a finite time, without extrapolation to infinity. Read a low AUC(0-t) as less exposure. By Cmax is commonly meant the maximum level reached in the sampled fluid or tissue. As usually defined, the Tmax is the time at which the peak concentration occurs.
